Measurements from patent US8147837B2, “Use of mycobacterial mannosylated lipoglycans peptide mimotopes for treating inflammation” (priority 2004, dated 2012).
Ends that are not written are not given here.

What was measured:
[1] = test system: macrophage cell line RAW 264.7; assay: FITC-labeled peptide binding to RAW 264.7 (confocal microscopy, FACS); type: cell-based, murine
Procedure: B11 peptide (50 μg) was conjugated to FITC (Biotium, Hayward, Calif.) as described by Sethi et al., [Sethi, K. K., et al. Cell Motil Cytoskeleton 52:231-241 (2002)]. For confocal microscopy, RAW 264.7 cells were grown in 8-well glass slides, Chamber Slide™ (Nunc), as described above. Cells were washed three times in cold PBS and incubated with the FITC-labeled mimotope for 5 min at 4° C. in serial dilutions of 1:2-1:100 in cold PBS. Slides were imaged immediately with a Zeiss 410 confocal laser scanning microscope.
(§1) RAW 264.7 cells were grown in a 250-ml flask, washed 3 times in cold PBS, and harvested, THP-1 cells were grown to 10^6/ml in 250-ml flask, centrifuged at 3000 rpm for 10 min, then washed 3 times in cold PBS. Cells were then incubated for 15 min at 37° C., with the FITC-labeled peptide diluted 1:50, then washed 3 times in cold PBS. The fluorescence levels of 10,000 cell counts were determined by FACS (Becton Dickinson, Franklin Lakes, N.J.) and analyzed by CELLQuest™ software. Assay of competitive binding between D-mannose and the FITC-labeled B11 peptide was performed according to Nguyen and Hildreth [Nguyen, D. G., and Hildreth, J. E. Eur J Immunol 33:483-493 (2003)].

[2] = test system: THP-1 human monocyte cell line; assay: FITC-labeled peptide binding to THP-1 (FACS); type: cell-based
Procedure: as §1

[3] = test system: allergic asthma; assay: OVA induced allergic asthma model; type: in vivo, mice
Procedure: For the induction of allergic asthma, mice were sensitized with OVA (Grade V, Sigma) adsorbed to Al(OH)3 gel (Aldrich Chemical Company, Milwaukee, Wis.), using 8 mg OVA/2 ml gel/0.5 ml H2O, pH 7.0-7.5, given intraperitoneally on days 0 and 14. On days 24 and 27 mice were challenged (induction of allergic asthma) with OVA i.n. Negative control group were sensitized with saline. The sensitization and challenge protocol used is an adaptation of a reported procedure [Blyth D. et al., Am. J. Respir. Cell Mol. Biol., 14: 425-438. (1996)].
Twenty-four hours after the second challenge mice were sacrificed. Bronchoalveolar lavage (BAL) was performed with PBS. Eosinophils in Bronchoalveolar lavage fluid (BALF) were detected as described above. Cytokine ELISA was performed to determine cytokine levels in BALF.
Mice treated with B11 peptide were treated with 200 μg/mouse 2 days before sensitizations (Group-S i.p.), 2 days before challenges i.p. (Group-C i.p.), or 1 hour before challenge i.n. (Group-C i.n.) and 2 days both before sensitization and challenge (Group-S+C i.p.).
Lung were excised and examined histologically and photographed after staining with haematoxylin and eosin.
(§2) Cytokine levels in mouse sera, cell supernatants, peritoneum lavage, and BALF were assessed by ELISA tests using commercial pairs of antibodies and recombinant cytokines for TNFα IFN-γ, IL-10 and IL-4 (Pharmingen International, Oxford, UK), and IL-12 (Biosource International, Camarillo, Calif.) according to the manufacturer's instructions. The ranges of the sensitivities of the ELISA for the murine cytokines were 15-200 pg/ml for TNF-α, IFN-γ, IL-10, and IL-4, and 15-500 pg/ml for IL-12.

[4] = test system: primary spleen cells; assay: Proliferation of primary spleen cells; type: cell-based, BALB/c mice
[5] = test system: TNBS induced colitis; assay: TNBS induced colitis; type: in vivo, C57BL/6 mice
Procedure: In Specific pathogen-free male 4 month old C57BL/6 mice lightly anesthetized a 3.5F catheter was carefully inserted into the colon (4 cm proximal to the anus) administering 0.5 mg of the hapten reagent TNBS (Sigma) in 50% ethanol into the lumen of the colon at days 1 and 5. Animals were then kept in a vertical position for […] and returned to their cages. The mice were monitored for weight loss, behavior, appearance and diarrhea for 11 days. On day 11 mice were sacrificed and tested from macroscopic inflammation symptoms in the spleen, liver and colon [Neurath M. et al., J Exp Med. 182:1281-90. (1995)].
Mice treated with B11 peptide were treated i.p. with 200 μg/mouse on days 1 and 5.

[6] = test system: CS40 mAb; assay: Direct peptide ELISA with CS40 mAb; type: binding
[7] = test system: RAW 264.7 macrophage cell line; assay: Cytokine secretion in RAW 264.7 cells (cytokine ELISA); type: cell-based, murine
[8] = test system: CS40 anti-ManLAM monoclonal antibody; assay: ELISA competition vs. ManLAM for CS40 mAb; type: binding; settings: 50 μg/ml of peptide
Procedure: ELISA competition assay was performed as described [Kaur, D., et al. Microbiology 148:3049-3057 (2002)]. Briefly, plates were coated with 0.5 μg/well ManLAM. Plates were blocked as described above. The CS40 mAb (diluted 1:2000) was mixed with various concentrations of either phage particles in TBS/1% BSA (0-1×10^18 particles/well) or peptides in PBS/1% BSA (0-200 μg/well). […] After washing (PBS), the ELISA procedure was performed as described above. Samples were all tested in triplicate.

[9] = test system: LPS-induced symptoms; assay: LPS mice model; type: in vivo, BALB/c mice; settings: B11 post-treatment, LPS 150 μg i.p.
[10] = test system: RAW 264.7 cell line; assay: Apoptosis of RAW 264.7 cells; type: cell-based, murine
[11] = test system: LPS-induced symptoms; assay: LPS mice model; type: in vivo, BALB/c mice
Procedure: Female BALB/c mice, 6-7 weeks old were injected i.p. with 150 μg LPS (Sigma) per mouse.
Treatment with peptide was performed four days before LPS injection, (i.p. 200 μg peptide per mouse).

[12] = test system: allergic peritonitis; assay: OVA induced allergic peritonitis model; type: in vivo, BALB/c mice
Procedure: For induction of allergic peritonitis, female BALB/c mice, 5-6 weeks old, were sensitized twice on days 1 and 7 by subcutaneous (s.c.) injection of 0.4 ml of a 0.9% solution of NaCl containing 100 μg ovalbumin (OVA) adsorbed on 1.6 mg Al(OH)3 (all Sigma) the mice received a second dose of the same s.c. injection. On day 11 Peritonitis was induced by the intraperitoneal (i.p.) injection of 0.4 ml of a solution containing 5 μg/ml OVA diluted in saline [Temkin V. et al., Cytokine. 24:74-80. (2003)]. Negative control group were sensitized with saline. On day 12 mice were sacrificed (24 h after challenge (peritonitis induction)), and the peritoneal cavity was washed with 5 ml of Tyrode buffer (3 mmol/L potassium chloride, 10 mmol/L sodium hydrogen carbonate, 20 mmol/L sodium chloride, 0.36 mmol/L sodium phosphate, 0.1% glucose (all Sigma)) containing 0.1% gelatin (TG buffer). Peritoneal lavage fluid was centrifuged (5 minutes, 150 g), supernatants were saved for cytokine ELISA, and cell pellets were re-suspended in 2 ml of TG buffer for eosinophil quantification. Cells were stained for 30 min. with Phycoerytrin (PE)-labeled anti-CCR3Ab (0.625 μg/ml; R&D systems, Abingdon, UK) and eosinophils were defined as cells expressing the eotaxin receptor CCR3 [Grimaldi et al., J Leukoc Biol. 65:846-53. (1999)] by FACS analysis.
Mice treated with B11 peptide were treated i.p. with 200 μg/mouse 1 hour before sensitizations (Group-S), 1 hour before challenge (Group-C), and 1 hour before both sensitizations and challenge (Group-S+C).
as §2

[13] = test system: serum antibodies of TB patients; assay: ELISA of human TB patients' sera on ManLAM or B11 coated plates; type: binding
Excerpt: Marchal (Pasteur Institute, Paris).

[14] = test system: IgG antibodies in sera of Mtb-infected mice; type: binding, BALB/c mice
[15] = Groups S, C and S+C vs Group OVA, 200 μg i.p.

Substance: FITC-conjugated B11 peptide: B11 peptide conjugated to FITC (ISLTEWSMWYRH; also: FITC conjugated)
- binding to macrophages in presence of D-mannose ([1]; FACS, 0.125 M D-mannose): inhibited by D-mannose
- binding to RAW 264.7 ([1]; confocal microscopy and FACS): bound the macrophage cell line RAW 264.7
- binding to THP-1 in presence of D-mannose ([2]; 0.125 M D-mannose): inhibited by D-mannose

Substance: ISLTEWSMWYRH (random phage display library) [B11 peptide]
- eosonophil levels in BALF ([3]; S i.p., C i.p., S+C i.p. and C i.n. vs OVA mice, 200 μg, FACS): significantly lower
- IL-12 in BALF ([3]; all mice treated i.p.): significantly lower
- IL-10 in BALF ([3]; i.n. before challenge, i.p. both before sensitization and challenge): significantly lower
- TNF-α in BALF ([3]; i.p. and i.n. before challenge): significantly lower
- IL-4 in BALF ([3]; i.p. and i.n. before challenge, i.p. both before sensitization and challenge): significantly lower
- inflammation in lung histology ([3]; treated i.p. before sensitizations or before challenges): no inflammation was observed
- inhibition of proliferation ([4]; spleen cells of Mtb infected mice): 40-50%
- inhibition of proliferation ([4]; spleen cells of adjuvant stimulated mice): 40-50%
- inhibition of proliferation ([4]; spleen cells of naive mice): 40-50%
- appearance, behavior, diarrhea, weight loss ([5]; all 11 days of experiment, all treated mice): normal appearance and behavior, and no diarrhea or weight loss
- colons normal in color and thickness ([5]; day 11): 50%
- colons with lesions ([5]; day 11): None
- macroscopic inflammation symptoms of colon, spleen and liver ([5]; day 11): reduced
- treated mice with spleen and liver normal in size and colorization ([5]; day 11): 75%
- colitis symptoms ([5]; i.p. 200 μg at days 1 and 5): reduced the colitis symptoms
- binding to CS40 mAb by direct ELISA [6]: bound the CS40 mAb
- inhibition of IL-12 secretion ([7]; LPS-IFN-γ-activated RAW 264.7): 20%
- production of IL-12 ([7]; non-activated RAW 264.7): not induced
- production of IL-6 ([7]; non-activated RAW 264.7, data not shown): not induced
- decrease in OD in competitive ELISA [8]: 100%
- binding to THP-1 [2]: Binds
- LPS-induced effects [9]: successfully reduced the LPS-induced effects
- inhibition of apoptosis ([10]; LPS-IFN-γ-activated RAW 264.7): 30%
- induction of apoptosis ([10]; non-activated RAW 264.7): did not induce apoptosis
- State after LPS-B11 pre-treatment ([11]; 1 hr post LPS injection): healthy
- State after LPS-B11 pre-treatment ([11]; 20 hr post LPS injection): Healthy
- State after LPS-B11 pre-treatment ([11]; 48 hr post LPS injection): Healthy
- LPS symptoms (appearance, behavior, curing rate) ([11]; pre-treated i.p. 200 μg 4 days before LPS): milder LPS symptoms
- eosonophil levels in peritoneum lavage ([12]; 200 μg one hour before challenge with OVA): as in the control group
- IFN-γ levels in peritoneum lavage [12, 15]: significantly lower
- IL-10 levels in peritoneum lavage [12, 15]: significantly lower
- IL-12 levels in peritoneum lavage [12, 15]: significantly lower
- anti-peptide antibody titers in BCG-vaccinated individuals ([13]; BCG-vaccinated vs TB patients): significantly lower than in TB patients
- titers of antigen-binding antibodies in sera of TB patients ([13]; TB patients vs healthy individuals): Significantly higher titers
- IgG Abs in sera binding the coated antigen [14]: significantly higher than those of the naive mice

Substance: CISLTEWSMWYRH [B11 peptide with an additional cysteine residue at the amino terminus]
- binding properties to ManLAM-binding antibodies ([14]; peptide with extra cysteine at amino terminus): maintained binding properties
